From US20040082623A1, “Fmoc-l-leucine and derivatives thereof as ppar-gamma agonists” (priority 2003, published 2004)

Legend:
PPARγ2 [1] = molecular target: T1, PPARγ2 (Homo sapiens, UniProt P37231); experiment: Transient transfection, PPARγ2 reporter in RK13 cells; format: cell-based; parameters: a construct containing the entire cDNA of the human PPARγ2 (hPPARγ2); expressed in transfected cells; host or cells: Hep G2, RK13 or CV1 cells; conditions: RK13 cells, 10^−5 M added
T1 sequence (P37231 1-505): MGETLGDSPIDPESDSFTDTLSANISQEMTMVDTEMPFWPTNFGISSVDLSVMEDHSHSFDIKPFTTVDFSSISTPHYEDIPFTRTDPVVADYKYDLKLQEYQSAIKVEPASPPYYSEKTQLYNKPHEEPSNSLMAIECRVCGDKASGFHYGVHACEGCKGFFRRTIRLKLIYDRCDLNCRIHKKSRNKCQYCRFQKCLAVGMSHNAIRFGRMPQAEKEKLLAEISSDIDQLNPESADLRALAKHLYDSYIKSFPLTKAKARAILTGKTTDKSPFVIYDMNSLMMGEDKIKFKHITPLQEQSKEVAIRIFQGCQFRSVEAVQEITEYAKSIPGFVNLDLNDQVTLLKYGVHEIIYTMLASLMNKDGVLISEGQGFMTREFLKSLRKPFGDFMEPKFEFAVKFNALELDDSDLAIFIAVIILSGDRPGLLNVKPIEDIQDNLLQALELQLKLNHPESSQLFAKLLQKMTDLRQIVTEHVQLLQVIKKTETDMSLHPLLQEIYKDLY
Procedure: (§1) RK13 cells (A and D), CV1 cells (B) or Hep G2 cells (C) were co-transfected with an expression vector for PPARγ2 (0.1 μg/well), pGL3-(Jwt)3TKLuc reported construct (0.5 μg/well), and pCMV-βGal (0.5 μg/well), as a control of transfection efficiency (0.5 μg/well). They were then grown during 24 h in the presence or absence of indicated compound. Activation is expressed as relative luciferase activity/β ? galactosidase activity. Each point was performed in triplicate, and each figure i ? representative of four independent experiments.
(§2) The CV1, RK-13, and Hep G2 cell lines were obtained from ATCC (Rockville, Md.). Cells were maintained in Dulbecco's modified Eagle's minimal essential medium (DMEM) supplemented with 10% fetal calf serum (FCS), L-glutamine, and antibiotics. Transfections with chloramphenicol acetyltransferase (CAT) or luciferase (luc.) reporter constructs were carried out exactly as described previously (Schoonjans et al., 1996). The pGL3-(Jwt)3TKLuc and the pGL3-(Jwt)3TKCAT reporter constructs contain both three tandem repeats of the J site of the apolipoprotein A-II promoter cloned upstream of the herpes simplex virus thymidine kinase (TK) promoter and the luciferase or the CAT reporter genes respectively (Vu-Dac et al., 1995). The following expression vectors were used; pSG5-hPPARγ2, a construct containing the entire cDNA of the human PPARγ2 (hPPARγ2) (Fajas et al., 1997); pSG5-mPPARα (Isseman et al., 1993); and pCMV-βGal, as a control of transfection efficiency.

PPARγ2 [2] = molecular target: T1, PPARγ2; experiment: Transient transfection, PPARγ2 reporter (luciferase/β-galactosidase) in Hep G2 cells; format: cell-based; parameters: a construct containing the entire cDNA of the human PPARγ2 (hPPARγ2); expressed in transfected cells; host or cells: Hep G2; conditions: HepG2 cells, pSG5-hPPARγ2, 24 h, F-L-leu at 10^−5 M
Procedure: Hep G2 cells were co-transfected with an expression vector for PPARγ2 (0.1 μg/well), pGL3-(Jwt)3TKLuc reporter construct (0.5 μg/well), and pCMV-βGal (0.5 μg/well), as a control of transfection efficiency (0.5 μg/well). The were then grown during 24 h in the presence or absence of indicated compound Activation is expressed as relative luciferase activity/β-galactosidase activity. Each point was performed in triplicate. This figure is representative of three independent experiments.
as §1, §2

db/db mice = conditions: db/db

modification of PPARγ activity when added to a saturating concentration of rosiglitazone (PPARγ2 [1])	PPARγ activation (relative luciferase activity/β-galactosidase activity) (PPARγ2 [2])	PPARγ activation (relative luciferase activity/β-galactosidase activity) (PPARγ2 [2]; listed as FMOC substituted L-tyrosine derivative)	SMILES	maximal glycemia in IPGTT (db/db mice; 10 mg/kg/day i.p., 7 days, DMSO control 500) [mg/dL]	body weight vs control mice (db/db mice; 10 mg/kg/day, 8 days)	fasting serum insulin levels (mean) (db/db mice; 7 days treatment, DMSO group 180) [μUI/mL]
No significant modification	no significant PPARγ activation		CC(C)C[C@@H](NC(=O)OCC1c2ccccc2-c2ccccc21)C(=O)O [FMOC-D-leucine, reference compound]			
No significant modification	devoid of	did not activate PPARγ	O=C(N[C@@H](Cc1ccc(O)cc1)C(=O)O)OCC1c2ccccc2-c2ccccc21 [FMOC-L-tyrosine, reference compound]			
			CN(CCOc1ccc(CC2SC(=O)NC2=O)cc1)c1ccccn1 (centres unmarked) [rosiglitazone, reference compound]	350	tendency to increase body weight	70
